Assay results: patent publication US12215123B2, “Cordycepin-based derivatized compound with anti-tumor effect” (NANJING TECH UNIVERSITY, priority 2022, dated 2025)
Where two headings read alike, the source gives them in different places.

Tests used:
[1] = system: small cell lung cancer cell line H446; experiment: MTT proliferation, small cell lung cancer cell line H446; assay type: cell-based; conditions: read-out: IC50 (μM) of compounds in small cell lung cancer cells, H446
Description: (§1) The method for determining inhibitory activities of the compounds on the proliferation of tumor cells by an MTT method is as follows: a bottle of cells in a good state in an exponential growth phase is added with 0.25% trypsin digestive juice, the digestion makes adherent cells fall off, with 2 to 4×10^4 cells/mL, and a cell suspension is prepared. The cell suspension is inoculated on a 96-well plate, with 90 μL/well, and cultured in a constant-temperature CO2 incubator for 24 hours. The prepared compounds are added for testing, with 10 μL/well, and cultured for 72 hours. An MTT reagent is added into a 96-well plate, with 10 μL/well, and reacts in an incubator for 4 hours to absorb a supernatant, and then dimethyl sulfoxide is added, with 100 μL/well. After a crystal is dissolved, an absorbance of each well at a wavelength of 570 nm is measured by an enzyme-linked immunosorbent assay instrument, and a cell inhibition rate is calculated. An S curve is made with a compound concentration and a corresponding inhibition rate. Therefore, IC50 of a corresponding compound is obtained.
(§2) Anti-tumor dose-effect relationship curves of cordycepin and compounds 1, 2, 4, 5, 7, 8, 10, 12, 16, 18, 21, 23, 24, 35 and 38 in small cell lung cancer cell lines H1048, H446 and H69 were analyzed by an MTT experimental method.

[2] = system: small cell lung cancer cell line H1048; experiment: MTT proliferation, small cell lung cancer cell line H1048; assay type: cell-based; conditions: read-out: IC50 (μM) of compounds in small cell lung cancer cells, H1048
Description: as §1, §2

[3] = system: small cell lung cancer cell line H69; experiment: MTT proliferation, small cell lung cancer cell line H69; assay type: cell-based; conditions: read-out: IC50 (μM) of compounds in small cell lung cancer cells, H69
Description: as §1, §2

[4] = system: wild-type AB-line zebrafish; conditions: 3 dpf to 5 dpf, 35° C.; survival rate>90% and teratogenicity<20%
Description: The zebrafish model is a wild-type AB-line zebrafish from College of Biotechnology and Pharmaceutical Engineering, Nanjing Tech University, and is carried out by a natural mating reproduction method, with 30 zebrafish of 2 dpf in each experimental group. The zebrafish is fed in fish culture water at 28° C. (water quality:200 mg of instant sea salt and CaCO3 are added into 1 L of reverse osmosis water with a conductivity of 480 uS/cm to 510 uS/cm, a pH value of 6.9 to 7.2, and a hardness of 53.7 mg/L to 71.6 mg/L), and the feeding management meets the requirements of international AAALAC certification.
240 3 dpf wild-type AB-line zebrafish were randomly selected in an 8-well plate, with 30 zebrafish in each well, and 3 mL of fish culture water in each well, the cordycepin was diluted according to a maximum lethal dose, dissolved in DMSO, and added into each well according to a concentration gradient (the maximum lethal dose was diluted by 100 times, in which 8 concentration gradient values were taken for the experiment), and meanwhile, a normal control group, a solvent control group G (5% glucose) and a solvent control group D (DMSO) were set. During the experiment, the zebrafish in each group were cultured at 35° C., after the zebrafish were treated to be 5 dpf with a sample to be tested, lethal and developmental malformation conditions of the zebrafish in different doses were investigated respectively, and a maximum tolerance dose (MTD) of the sample to be tested to normal zebrafish was determined under a concentration when survival rate>90% and teratogenicity<20%.

[5] = system: gastric cancer cell line AGS; experiment: MTT proliferation, gastric cancer cell line AGS; assay type: cell-based; conditions: read-out: IC50 (μM) in gastric cancer cells, AGS
How it was run: (§3)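 Tumour cells in exponential growth were trypsinised, seeded at 2 to 4×10^4 cells/mL, cultured 24 hours, then exposed to compounds for 72 hours. MTT was added for 4 hours, formazan dissolved in DMSO and absorbance read at 570 nm. IC50 came from an S curve of inhibition rate against concentration.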

[6] = system: gastric cancer cell line BGC-823; experiment: MTT proliferation, gastric cancer cell line BGC-823; assay type: cell-based; conditions: Homo sapiens, read-out: IC50 (μM) in gastric cancer cells, BGC-823
How it was run: as §3

[7] = system: BGC-823 gastric cancer cells; experiment: Mouse transplanted gastric cancer model; assay type: in vivo, C57BL/6j nude mice; conditions: BGC-823 transplanted mice, intragastric 500 ug/time/animal every day, 18 days; for tumor weight: control 1.73 g
Description: The feeding of the mouse model in the drug evaluation follows that: mice are fed and treated in a laminar flow cabinet, with 5 nude mice in each cage, drinking water and feedstuffs are added once every 3 days, and paddings are replaced once a week; a number of mice kept in each cage is no more than 5, the mice in separate cages are kept in groups as far as possible, and the mice should not be kept in a single cage; the animal management must conform to the relevant national standards on animal feeding management, and the behavioral needs of animals should be concerned at the same time to avoid unnecessary stress; the normal physiological and behavioral needs of animals, such as defecation, urination, constant body temperature maintenance, normal activities, posture adjustment and reproduction are met; good ventilation and dry animals are kept; the animals can access to drinking water and food at will, and supplementation, replacement and cleaning operations are easily carried out; a solid and safe environment is provided to avoid accidents of animals, such as escaping or limb trapping in a gap; the animals are avoided from being damaged by sharp edges or protrusions; and the animals are not disturbed during observation.
A mouse transplanted gastric cancer model was established and a drug was evaluated. 2×10^7 BGC-823 gastric cancer cells were suspended in 100 μL of PBS to be inoculated into an anterior chest wall of C57BL/6j nude mice, disinfection was carried out with 75% ethanol, and the most obvious part of apical impulse was touched with hand to inoculate the cells to a left ventricle in a second intercostal space about 3 mm to the left of the sternum. About one week later, when the transplanted tumor reached about 100 mm^3, the mice were randomly divided into five groups, with 10 mice in each group, comprising a control group, a cordycepin group, and compound 16, compound 18 and compound 24 drug groups respectively. The control group was intragastrically administrated with a nutritional agent such as a corn steep liquor and DMSO as a solvent control every day; the cordycepin group was intragastrically administrated with the cordycepin (500 ug/time/animal) every day under configuration with DMSO; and the compound drug groups were intragastrically administrated with the compounds (500 ug/time/animal) every day under configuration with DMSO. The administration was carried out for 18 consecutive days. Changes of gastric tumor sizes in the five groups of mice were observed every two days, the mice were killed after the experiment, blood and corresponding tissue samples were collected, and tumor bodies were immediately photographed and weighed.

CC(C)OC(=O)C(C)NP(=O)(COC[C@@H]1CC(O)[C@H](n2cnc3c(NC(=O)c4ccncc4)ncnc32)O1)Oc1ccccc1 (stereo partly drawn) [Compound 24, isopropyl((((4-hydroxy-5-(6-(isonicotinamide)-9H-purin-9-yl)tetrahydrofuran-2-yl)methoxy)methyl)(phenoxy)phosphoryl)alanine ester]
IC50 ([1]; Homo sapiens, NCI-H446, 72 h): 17.2 µM
IC50 ([2]; Homo sapiens, NCI-H1048, 72 h): 24.4 µM
IC50 ([3]; 72 h): 25.5 µM
Maximum tolerance dose (MTD) in zebrafish model [4]: 5 µM
IC50 ([5]; 72 h): 0.13 µM
IC50 ([6]; BGC-823, 72 h): 0.09 µM
tumor weight, times lower than that of the control group [7]: about 12 times
tumor weight [7]: 0.14 g

Nc1ncnc2c1ncn2[C@@H]1O[C@H](CO)C[C@H]1O [Cordycepin, 3′-deoxyadenosine]
IC50 ([1]; Homo sapiens, NCI-H446, 72 h, MTT, 72 hours, H446): > 100 µM
IC50 ([1]; MTT, 72 hours, H446): 123 µM
IC50 ([2]; Homo sapiens, NCI-H1048, 72 h, MTT, 72 hours, H1048): > 100 µM
IC50 ([2]; MTT, 72 hours, H1048): 172 µM
IC50 ([3]; MTT, 72 hours, H69): 63.1 µM
Maximum tolerance dose (MTD) in zebrafish model [4]: 995 µM
IC50 ([5]; MTT, 72 hours, AGS): 372 µM
IC50 ([6]; MTT, 72 hours, BGC-823): 235 µM
tumor weight, times lower than that of the control group [7]: about 4 times
tumor weight [7]: 0.46 g
